Experimental data published in the supplement of paper PMC8976852.
± gives the standard deviation of the averaged measurements.

Tests used:
Assay in all cases: activity (1 - area under the dose-response curve within the screened range) (fraction); higher = more sensitive
Details in all cases: treatment time: 72 h
HCM-SANG-0266-C20 = test system: HCM-SANG-0266-C20 (colorectal cancer organoid)
Procedure: (§1)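 Patient-derived cancer organoids (colorectal and oesophageal, HCM-SANG models) were grown for up to 6 months in 5% or 80% ECM (BME-2), then seeded in 384-well plates on an ECM layer and treated with 72 compounds for 3 days. Each compound used a 7-point half-log dilution series spanning a 1000-fold range, in technical triplicate and biological duplicate. Dose-response curves were fitted with a non-linear mixed effects model; fits with RMSE > 0.3 were removed, and activity = 1 - AUC within the screened dose range (0 = no activity, 1 = maximum).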

HCM-SANG-0270-C20 = test system: HCM-SANG-0270-C20 (colorectal cancer organoid)
Procedure: as §1

HCM-SANG-0291-C15 = test system: HCM-SANG-0291-C15 (oesophageal cancer organoid)
Procedure: as §1

HCM-SANG-0532-C20 = test system: HCM-SANG-0532-C20 (colorectal cancer organoid)
Procedure: as §1

[1] = ECM percentage in culture prior to screening 5 %
[2] = ECM percentage in culture prior to screening 80 %

Row | Structure (SMILES) | activity (HCM-SANG-0266-C20; [1]) | activity (HCM-SANG-0266-C20; [2]) | activity (HCM-SANG-0270-C20; [1]) | activity (HCM-SANG-0270-C20; [2]) | activity (HCM-SANG-0291-C15; [1]) | activity (HCM-SANG-0291-C15; [2]) | activity (HCM-SANG-0532-C20; [1]) | activity (HCM-SANG-0532-C20; [2])
1 | C[C@]1(O)C[C@@H](c2nc(-c3ccc4ccc(-c5ccccc5)nc4c3)c3c(N)nccn32)C1 [Linsitinib] | 0.0577 ± 0.033 | 0.0295 ± 0.017 | 0.0341 ± 0.014 | 0.0245 ± 0.0092 | 0.0216 ± 0.0028 | 0.0248 ± 0.013 | 0.033 ± 0.015 | 0.0378 ± 0.015
2 | COc1cc2c(Nc3ccc(NC(=O)c4ccccc4)cc3)ncnc2cc1OCCCN1CCOCC1 | 0.228 ± 0.027 | 0.212 ± 0.038 | 0.102 ± 0.054 | 0.106 ± 0.06 | 0.0708 ± 0.031 | 0.0657 ± 0.034 | 0.184 ± 0.07 | 0.166 ± 0.022
3 | O=C(Nc1ccc2[nH]nc(-c3ccncc3)c2c1)[C@@H]1CCN(CC(=O)N2CCN(c3ccc(-c4ncccn4)cc3)CC2)C1 | 0.388 ± 0.086 | 0.155 ± 0.12 | 0.159 ± 0.078 | 0.0818 ± 0.065 | 0.236 ± 0.027 | 0.224 ± 0.055 | 0.201 ± 0.13 | 0.272 ± 0.056
4 | CCNC(=O)C[C@@H]1N=C(c2ccc(Cl)cc2)c2cc(OC)ccc2-n2c(C)nnc21 [I-BET-762] | 0.121 ± 0.041 | 0.0782 ± 0.04 | 0.0441 ± 0.019 | 0.0339 ± 0.019 | 0.0724 ± 0.037 | 0.068 ± 0.015 | 0.0448 ± 0.021 | 0.0841 ± 0.035
5 | C[C@@]1(C(=O)Nc2ccc(F)nc2)CCCN1c1nc(Nc2cc(C3CC3)n[nH]2)c2cccn2n1 | 0.455 ± 0.056 | 0.41 ± 0.056 | 0.18 ± 0.086 | 0.22 ± 0.11 | 0.126 ± 0.039 | 0.172 ± 0.056 | 0.279 ± 0.091 | 0.302 ± 0.035
6 | CN1CCN(CCOc2cc(OC3CCOCC3)c3c(Nc4c(Cl)ccc5c4OCO5)ncnc3c2)CC1 [Saracatinib] | 0.156 ± 0.038 | 0.126 ± 0.041 | 0.121 ± 0.071 | 0.0918 ± 0.067 | 0.159 ± 0.035 | 0.185 ± 0.024 | 0.155 ± 0.067 | 0.141 ± 0.028
7 | COc1ccc(-c2ccc3c(N4CCOC[C@@H]4C)nc(N4CCOC[C@@H]4C)nc3n2)cc1CO [AZD8055] | 0.298 ± 0.097 | 0.251 ± 0.12 | 0.117 ± 0.043 | 0.0699 ± 0.062 | 0.076 ± 0.03 | 0.0634 ± 0.032 | 0.237 ± 0.076 | 0.301 ± 0.039
8 | CC(=O)c1c(C)c2cnc(Nc3ccc(N4CCNCC4)cn3)nc2n(C2CCCC2)c1=O [Palbociclib] | 0.0791 ± 0.052 | 0.0779 ± 0.05 | 0.0934 ± 0.03 | 0.0559 ± 0.031 | 0.0779 ± 0.033 | 0.0409 ± 0.013 | 0.0593 ± 0.019 | 0.102 ± 0.034
9 | O=c1[nH]cc(F)c(=O)[nH]1 [5-Fluorouracil] | 0.137 ± 0.068 | 0.12 ± 0.061 | 0.123 ± 0.031 | 0.103 ± 0.075 | 0.0848 ± 0.043 | 0.063 ± 0.035 | 0.0766 ± 0.035 | 0.121 ± 0.044
10 | O=c1cc(-c2cccc3c2Sc2ccccc2S3)oc(N2CCOCC2)c1 | 0.0362 ± 0.021 | 0.0433 ± 0.027 | 0.0345 ± 0.015 | 0.0384 ± 0.0084 | 0.068 ± 0.034 | 0.0493 ± 0.031 | 0.0709 ± 0.021 | 0.037 ± 0.01
11 | c1cn2cc(-c3ccc4cn[nH]c4c3)nc(Nc3ccc(N4CCOCC4)cc3)c2n1 [Entospletinib] | 0.0298 ± 0.01 | 0.0227 ± 0.0068 | 0.0261 ± 0.0085 | 0.0204 ± 0.0032 | 0.0238 ± 0.0074 | 0.0204 ± 0.0022 | 0.0354 ± 0.019 | 0.0256 ± 0.0054
12 | CCC1=C[C@@H]2CN(C1)Cc1c([nH]c3ccccc13)[C@@](C(=O)OC)(c1cc3c(cc1OC)N(C)[C@H]1[C@@](O)(C(=O)OC)[C@H](OC(C)=O)[C@]4(CC)C=CCN5CC[C@]31[C@@H]54)C2 [Vinorelbine] | 0.153 ± 0.031 | 0.153 ± 0.039 | 0.0834 ± 0.05 | 0.095 ± 0.046 | 0.0831 ± 0.009 | 0.107 ± 0.024 | 0.0815 ± 0.04 | 0.107 ± 0.011
13 | N.N.[Cl][Pt][Cl] [Cisplatin] | 0.0675 ± 0.021 | 0.08 ± 0.081 | 0.0701 ± 0.024 | 0.0677 ± 0.021 | 0.132 ± 0.023 | 0.151 ± 0.025 | 0.0676 ± 0.035 | 0.0959 ± 0.02
